Broadly, the IC50 is the concentration that gives 50% inhibition. In general, inhibition refers to the change of the read-out against control, counted positive when it falls. Broadly, the Inhibition is the share of the control response that was lost under treatment. A lower Inhibition goes with a response near the control.

Like-named read-outs stand apart in the source and are kept apart here.

These results are taken from article PMC11280411, “Phytochemical Investigation of Carex praecox Schreb. and ACE-Inhibitory Activity of Oligomer Stilbenes of the Plant” (Molecules, 2024).

Series [1] concerns velvetleaf seeds. Also on record: method as in doi:10.1007/BF02266955. As to conditions: cited from earlier work.
Series [2] has as its target T1, ACE from rabbit lung (Oryctolagus cuniculus, UniProt P12822).
T1 construct: ACE from rabbit lung, A6778, Sigma-Aldrich, USA; purchased Sigma-Aldrich A6778; host or cells: rabbit lung (tissue-derived)
T1 sequence (P12822 34-1310): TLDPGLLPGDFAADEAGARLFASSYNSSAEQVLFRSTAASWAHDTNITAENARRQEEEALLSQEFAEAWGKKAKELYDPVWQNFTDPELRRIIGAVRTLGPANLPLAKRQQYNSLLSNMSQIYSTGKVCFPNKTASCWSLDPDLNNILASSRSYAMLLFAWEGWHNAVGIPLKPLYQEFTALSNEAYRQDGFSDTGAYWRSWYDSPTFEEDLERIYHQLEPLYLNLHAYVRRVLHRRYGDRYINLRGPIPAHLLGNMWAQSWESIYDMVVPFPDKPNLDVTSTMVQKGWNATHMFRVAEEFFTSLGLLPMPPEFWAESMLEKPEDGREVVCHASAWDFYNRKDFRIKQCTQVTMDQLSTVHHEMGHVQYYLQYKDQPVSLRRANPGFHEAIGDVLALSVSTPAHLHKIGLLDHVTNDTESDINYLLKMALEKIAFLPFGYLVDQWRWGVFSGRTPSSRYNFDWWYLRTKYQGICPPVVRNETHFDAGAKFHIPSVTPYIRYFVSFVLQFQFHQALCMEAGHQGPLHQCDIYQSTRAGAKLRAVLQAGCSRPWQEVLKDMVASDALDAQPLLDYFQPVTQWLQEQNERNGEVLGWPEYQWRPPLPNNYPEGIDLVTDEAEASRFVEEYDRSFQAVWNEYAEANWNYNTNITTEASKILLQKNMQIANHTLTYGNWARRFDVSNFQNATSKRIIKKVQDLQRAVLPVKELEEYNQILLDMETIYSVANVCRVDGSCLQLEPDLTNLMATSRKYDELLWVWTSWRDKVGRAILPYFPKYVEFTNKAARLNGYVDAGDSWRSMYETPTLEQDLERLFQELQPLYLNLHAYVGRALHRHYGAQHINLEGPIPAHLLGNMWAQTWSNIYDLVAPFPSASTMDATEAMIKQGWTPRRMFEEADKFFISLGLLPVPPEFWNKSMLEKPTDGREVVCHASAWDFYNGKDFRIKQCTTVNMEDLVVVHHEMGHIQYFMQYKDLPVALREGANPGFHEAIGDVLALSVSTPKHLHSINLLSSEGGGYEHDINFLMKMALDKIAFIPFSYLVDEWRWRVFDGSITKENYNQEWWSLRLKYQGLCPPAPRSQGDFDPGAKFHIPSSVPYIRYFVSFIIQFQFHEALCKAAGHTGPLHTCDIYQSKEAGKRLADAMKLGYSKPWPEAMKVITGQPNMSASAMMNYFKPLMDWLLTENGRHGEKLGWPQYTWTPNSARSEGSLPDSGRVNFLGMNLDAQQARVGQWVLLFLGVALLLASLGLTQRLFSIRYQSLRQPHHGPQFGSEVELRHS
As to the kind of experiment: ACE-inhibitory assay (ACE Activity Assay Kit, fluorescence). It is filed as biochemical. Conditions: for inhibition at 90 µM: read-out: Inhibition at 90 μM (%) ± SD.

For series [3], the target named is T2, N-domain of rabbit lung ACE (Oryctolagus cuniculus, UniProt P12822).
T2 construct: on the C- and N-domain of a rabbit lung ACE using the FRET substrates; from tissue; host or cells: rabbit lung
T2 sequence (P12822 34-1310): T1 sequence (P12822 34-1310)
As to the kind of experiment: ACE domain-specific inhibition, N-domain (FRET substrate Abz-SDK(Dnp)P-OH). It is filed as biochemical. As to conditions: for Inhibition (%) ± SD, N-Domain: Abz-SDK(Dnp)P-OH [S] = 72 μM. On the procedure:
(§1) ACE domain-specific inhibition studies were performed based on previously reported methods (Carmona et al., 2006 [57]; Lunow et al., 2015 [58]). Fluorescence resonance energy transfer (FRET) substrates, Abz-SDK(Dnp)P-OH and Abz-LFK(Dnp)-OH were used for the N-domain and C-domain, respectively. […] Briefly, 40 μL of assay buffer and 60 μL of the FRET substrate solutions were preincubated for 10 min at 37 °C, with the reaction started by adding 20 μL of diluted ACE solution (5 μL ACE + 15 μL 0.1 mol/L TRIS buffer) and fluorescence measured at λex/λem = 290/450 nm every minute at 37 °C for 30 min. The corresponding KM of the FRET substrates, determined using the Michaelis–Menten equation, was used as the substrate concentration of the FRET substrates used in percent inhibition studies. The inhibitory activity of 16 on both domains was determined as described above with the 40 μL solution containing the inhibitor (inhibitor in DMSO–Assay buffer, 1:9). The control samples, which correspond to 100% enzyme activity, were prepared by replacing the inhibitor solution with TRIS buffer. Dose–effect studies on 16 using the FRET substrates were used to determine the IC50 of this compound on both ACE domains. All experiments were performed in triplicates. The ACE-inhibitory activity was calculated using the following equation:(%) = (Ab − Aa) − (Cb − Ca)/(Ab − Aa) × 100(2) where Aa is the absorbance of control wells at 0 min; Ab is the absorbance of control wells at 15 min; Ca is the absorbance of the inhibitor wells at 0 min; and Cb is the absorbance of inhibitor wells at 15 min.

For series [4], the system named is Colo 205. As to the kind of experiment: Antiproliferative MTT assay. In kind it is cell-based, human. Conditions: doxorubicin-sensitive cells; for IC50: read-out: IC50 (μM) ± SD, Colo 205. (In general: Formazan colour is commonly taken as a measure of viable cells.)
Series [5] has as its target T3, C-domain of rabbit lung ACE (Oryctolagus cuniculus, UniProt P12822).
T3 construct: on the C- and N-domain of a rabbit lung ACE using the FRET substrates; from tissue; host or cells: rabbit lung
T3 sequence (P12822 34-1310): T1 sequence (P12822 34-1310)
As to the kind of experiment: ACE domain-specific inhibition, C-domain (FRET substrate Abz-LFK(Dnp)-OH). In kind it is biochemical. As to conditions: for Inhibition (%) ± SD, C-Domain: Abz-LFK(Dnp)-OH [S] = 21 μM. On the procedure: as §1

In series [6] the test system is Colo 320/MDR-LRP expressing ABCB1. As to the kind of experiment: Antiproliferative MTT assay. Conditions: for IC50: Homo sapiens, COLO 320, 72 h, read-out: IC50 (μM) ± SD, Colo 320.
The subject of series [7] is HIV transcription. Also on record: method as in PMID 36975214. Conditions: T cells; cited from earlier work.
Series [8] deals with Colo 320/MDR-LRP expressing ABCB1.

`O=c1ccoc2cc(O)cc(O)c12` [Compound 22, 5,7-dihydroxychromone]: the inhibition of germination entry in series [1] was “inhibited the germination of velvetleaf seeds”.
As for `Oc1ccc(C2Oc3cc(O)cc4c3C2c2cc(O)cc(O)c2C(c2ccc(O)cc2)C4C2c3cc(O)cc4c3C(c3cc(O)cc(O)c3C2c2ccc(O)cc2)C(c2ccc(O)cc2)O4)cc1` (single isomer, unassigned; (-)) [Compound 16, (–)-hopeaphenol], the IC50 is 7.7 ± 0.9 µM in series [2] (ACE from rabbit lung); 35.7 ± 2.3 µM in series [3] (rabbit lung ACE, FRET substrate Abz-SDK(Dnp)P-OH); 1.59 ± 0.11 µM in series [4] (Homo sapiens, COLO 205, 72 h); greater than 300 µM in series [5] (rabbit lung ACE, FRET substrate Abz-LFK(Dnp)-OH); 6.08 ± 0.24 µM in series [6]. Moreover, in series [2] (ACE from rabbit lung, 90 μM), the inhibition at 90 µM worked out at 103 ± 1.5%. Besides, the “type of ACE inhibition (enzyme-kinetic studies)” value in series [2] (Lineweaver-Burk, substrate Abz-Gly-Phe(NO2)-Pro) is “mixed-type inhibition”. The “Inhibition (%) ± SD, N-Domain” value in series [3] (inhibitor 10 μM) came to 42.41 ± 0.8%; in series [3] (inhibitor 50 μM), 55.74 ± 3.2%. Moreover, the “IC50 (μM) ± SD, Colo 205” value in series [4] (72 h) is “notable antiproliferative activity”. Further, the “times lower affinity for the C-domain than for the N-domain” value in series [5] (C-domain versus N-domain IC50) turned out to be 10 times. In addition, the “Inhibition (%) ± SD, C-Domain” value in series [5] (inhibitor 10 μM) was determined as 18.17 ± 0.5%; in series [5] (inhibitor 50 μM) it was 23.39 ± 0.6%. Further, the “IC50 (μM) ± SD, Colo 320” value in series [6] (MTT, 72 h, doxorubicin-resistant cells expressing ABCB1) is given as “notable antiproliferative activity”. Further, the “inhibition of HIV transcription” value in series [7] was “selective inhibitor of HIV transcription”.
Turning to `Oc1ccc(/C=C/c2cc(O)cc(O)c2)cc1` [Compound 12, trans-resveratrol], the “IC50 (μM) ± SD, Colo 320” value in series [8] is on record as “notable antiproliferative activity”. Besides, the “IC50 (μM) ± SD, Colo 205” value in series [4] (72 h) is “notable antiproliferative activity”. Besides, the concentration for half-maximal inhibition (IC50) in series [4] (Homo sapiens, COLO 205, 72 h) came out at 48.3 ± 1.54 µM; in series [6] it was 40.4 ± 1.84 µM.
On to `Oc1ccc(/C=C\c2cc(O)cc3c2C(c2cc(O)cc(O)c2)C(c2ccc(O)cc2)O3)cc1` (stereo not drawn) [Compound 13, cis-ε-viniferin], for which the IC50 is 18 ± 1.2 µM in series [2] (ACE from rabbit lung); greater than 100 µM in series [4] (Homo sapiens, COLO 205, 72 h); greater than 100 µM in series [6]. Moreover, the inhibition at 90 µM in series [2] came to 95.5 ± 2.8%.
Take “bradykinin-potentiating peptide b [BPPb, reference compound]”: the “Inhibition (%) ± SD, N-Domain” value in series [3] (inhibitor 200 nM) was 5.2 ± 0.2%. In series [5] (inhibitor 200 nM), the “Inhibition (%) ± SD, C-Domain” value stood at 83.20 ± 3.6%.
As to kobophenol A [Compound 17], the half-inhibitory concentration (IC50) in series [2] (ACE from rabbit lung) was 14.8 ± 0.8 µM; in series [8], greater than 100 µM; in series [4] (72 h), greater than 100 µM. Further, the “Inhibition at 90 μM (%) ± SD” value in series [2] (ACE from rabbit lung, 90 μM) is given as 98.5 ± 1.2%.
For the compound `COc1cccc2c1C(=O)c1c(O)c3c(c(O)c1C2=O)C[C@@](O)(C(=O)CO)C[C@@H]3O[C@H]1C[C@H](N)[C@H](O)[C@H](C)O1` [Doxorubicin, reference compound], the IC50 in series [4] (Homo sapiens, COLO 205, 72 h) was determined as 0.33 ± 0.03 µM; in series [6] it was 0.67 ± 0.06 µM.
Consider `N.N.[Cl][Pt][Cl]` [Cisplatin, reference compound], for which the IC50 in series [4] (72 h) is 53.9 ± 3.92 µM.
Consider `Oc1ccc(/C=C/c2cc(O)cc3c2C(c2cc(O)cc(O)c2)C(c2ccc(O)cc2)O3)cc1` (stereo not drawn) [Compound 14, trans-ε-viniferin], for which the half-maximal inhibitory concentration (IC50) was 14 ± 0.7 µM in series [2] (ACE from rabbit lung); greater than 100 µM in series [4] (Homo sapiens, COLO 205, 72 h); greater than 100 µM in series [6]. In series [2], the inhibition at 90 µM stood at 107 ± 1.1%.
Consider `Oc1ccc(/C=C\c2cc(O)cc3c2[C@H](c2cc(O)cc4c2[C@H](c2cc(O)cc(O)c2)[C@@H](c2ccc(O)cc2)O4)[C@@H](c2ccc(O)cc2)O3)cc1` [Compound 15, Z-miyabenol C], for which the IC50 in series [2] (ACE from rabbit lung) is 15.2 ± 0.4 µM; in series [4] (Homo sapiens, COLO 205, 72 h) it was greater than 100 µM; in series [6], greater than 100 µM. In addition, the inhibition at 90 µM in series [2] (ACE from rabbit lung, 90 μM) came to 96.7 ± 6.3%.
